Compound | melting point [°C]
CCc1nc2c(cnn2CC)c(NC2CCOCC2)c1CNC(=O)c1cccc(C(=O)NCc2ccc(Cl)c(-c3cccc(CN4CCCN(C)CC4)c3)c2)c1 [Example 218, N-({6-Chloro-3′-[(4-methylhexahydro-1H-1,4-diazepin-1-yl)methyl]-3-biphenylyl}methyl)-N′-{[1,6-diethyl-4-(tetrahydro-2H-pyran-4-ylamino)-1H-pyrazolo[3,4-b]pyridin-5-yl]methyl}-1,3-benzenedicarboxamide] | 105 to 107
CCc1nc2c(cnn2CC)c(NC2CCOCC2)c1CNC(=O)c1cccc(C(=O)NCc2ccc(Cl)c(-c3cccc(CN4CCN(C)CC4)c3)c2)c1 [Example 219, N-({6-Chloro-3′-[(4-methyl-1-piperazinyl)methyl]-3-biphenylyl}methyl)-N′-{[1,6-diethyl-4-(tetrahydro-2H-pyran-4-ylamino)-1H-pyrazolo[3,4-b]pyridin-5-yl]methyl}-1,3-benzenedicarboxamide] | 112 to 114
CCc1nc2c(cnn2CC)c(NC2CCOCC2)c1CNC(=O)c1cccc(C(=O)NCc2ccc(Cl)c(-c3cccc(CN4C[C@@H](C)N[C@@H](C)C4)c3)c2)c1 [Example 220, N-[(6-Chloro-3′-{[(3R,5S)-3,5-dimethyl-1-piperazinyl]methyl}-3-biphenylyl)methyl]-N′-{[1,6-diethyl-4-(tetrahydro-2H-pyran-4-ylamino)-1H-pyrazolo[3,4-b]pyridin-5-yl]methyl}-1,3-benzenedicarboxamide] | 121 to 124
CCc1nc2c(cnn2CC)c(NC2CCOCC2)c1CNC(=O)c1cccc(C(=O)NCc2ccc(Cl)c(-c3cccc(CN4CCCNCC4)c3)c2)c1 [Example 221, N-{[6-Chloro-3′-(hexahydro-1H-1,4-diazepin-1-ylmethyl)-3-biphenylyl]methyl}-N′-{[1,6-diethyl-4-(tetrahydro-2H-pyran-4-ylamino)-1H-pyrazolo[3,4-b]pyridin-5-yl]methyl}-1,3-benzenedicarboxamide] | 116 to 119
CCc1nc2c(cnn2CC)c(NC2CCOCC2)c1CNC(=O)c1cccc(C(=O)NCc2ccc(Cl)c(-c3cccc(CN4CCNCC4)c3)c2)c1 [Example 222, N-{[6-Chloro-3′-(1-piperazinylmethyl)-3-biphenylyl]methyl}-N′-{[1,6-diethyl-4-(tetrahydro-2H-pyran-4-ylamino)-1H-pyrazolo[3,4-b]pyridin-5-yl]methyl}-1,3-benzenedicarboxamide] | 127 to 130
CCc1nc2c(cnn2CC)c(NC2CCOCC2)c1CNC(=O)c1cccc(C(=O)NCc2ccc(Cl)c(-c3cccc(CN4C[C@@H]5C[C@H]4CN5)c3)c2)c1 [Example 223, N-({6-Chloro-3′-[(1S,4S)-2,5-diazabicyclo [2.2.1]hept-2-ylmethyl]-3-biphenylyl}methyl)-N′-{[1,6-diethyl-4-(tetrahydro-2H-pyran-4-ylamino)-1H-pyrazolo[3,4-b]pyridin-5-yl]methyl}-1,3-benzenedicarboxamide] | 145 to 149
CCc1nc2c(cnn2CC)c(NC2CCOCC2)c1CNC(=O)c1cccc(C(=O)NCc2cc(Cl)cc(-c3cccc(CN4CCN[C@@H](C)C4)c3)c2)c1 [Example 224, N-[(5-Chloro-3′-{[(3S)-3-methyl-1-piperazinyl]methyl}-3-biphenylyl)methyl]-N′-{[1,6-diethyl-4-(tetrahydro-2H-pyran-4-ylamino)-1H-pyrazolo[3,4-b]pyridin-5-yl]methyl}-1,3-benzenedicarboxamide] | 119 to 121
CCc1nc2c(cnn2CC)c(NC2CCOCC2)c1CNC(=O)c1cccc(C(=O)NCc2cc(Cl)cc(-c3cccc(CN4CCN(C)CC4)c3)c2)c1 [Example 422, N-({5-Chloro-3′-[(4-methyl-1-piperazinyl)methyl]-3-biphenylyl}methyl)-N′-{[1,6-diethyl-4-(tetrahydro-2H-pyran-4-ylamino)-1H-pyrazolo[3,4-b]pyridin-5-yl]methyl}-1,3-benzenedicarboxamide] | 116 to 118
CCc1nc2c(cnn2CC)c(NC2CCOCC2)c1CNC(=O)c1cc(C)cc(C(=O)NCc2ccc(OC)c(-c3cccc(CN4CCN[C@@H](C)C4)c3)c2)c1 [Example 423, N-{[1,6-Diethyl-4-(tetrahydro-2H-pyran-4-ylamino)-1H-pyrazolo[3,4-b]pyridin-5-yl]methyl}-5-methyl-N′-[(6-(methyloxy)-3′-{[(3S)-3-methyl-1-piperazinyl]methyl}-3-biphenylyl)methyl]-1,3-benzenedicarboxamide] | 121 to 123
CCc1nc2c(cnn2CC)c(NC2CCOCC2)c1CNC(=O)c1cccc(C(=O)NCc2cc(Cl)cc(-c3cccc(CN4CCNCC4)c3)c2)c1 [Example 424, N-{[5-Chloro-3′-(1-piperazinylmethyl)-3-biphenylyl]methyl}-N′-{[1,6-diethyl-4-(tetrahydro-2H-pyran-4-ylamino)-1H-pyrazolo[3,4-b]pyridin-5-yl]methyl}-1,3-benzenedicarboxamide] | 119 to 122
CCc1nc2c(cnn2CC)c(NC2CCOCC2)c1CNC(=O)c1cc(C)cc(C(=O)NCc2cccc(-c3cccc(CC4CCN(C)CC4)c3)c2)c1 [Example 425, N-{[1,6-Diethyl-4-(tetrahydro-2H-pyran-4-ylamino)-1H-pyrazolo[3,4-b]pyridin-5-yl]methyl}-5-methyl-N′-({3′-[(1-methyl-4-piperidinyl)methyl]-3-biphenylyl}methyl)-1,3-benzenedicarboxamide] | 119 to 121
CCc1nc2c(cnn2CC)c(NC2CCOCC2)c1CNC(=O)c1cc(C)cc(C(=O)NCc2cccc(-c3cccc(CC4CCNCC4)c3)c2)c1 [Example 426, N-{[1,6-Diethyl-4-(tetrahydro-2H-pyran-4-ylamino)-1H-pyrazolo[3,4-b]pyridin-5-yl]methyl}-5-methyl-N′-{[3′-(4-piperidinylmethyl)-3-biphenylyl]methyl}-1,3-benzenedicarboxamide] | 130 to 132
CCc1nc2c(cnn2CC)c(NC2CCOCC2)c1CNC(=O)c1cc(C)cc(C(=O)NCc2ccc(OC)c(-c3cccc(CC4CCN(C)CC4)c3)c2)c1 [Example 427, N-{[1,6-Diethyl-4-(tetrahydro-2H-pyran-4-ylamino)-1H-pyrazolo[3,4-b]pyridin-5-yl]methyl}-5-methyl-N′-({6-(methyloxy)-3′-[(1-methyl-4-piperidinyl)methyl]-3-biphenylyl}methyl)-1,3-benzenedicarboxamide] | 115 to 117
CCc1nc2c(cnn2CC)c(NC2CCOCC2)c1CNC(=O)c1cccc(C(=O)NCc2cc(Cl)cc(-c3cccc(CN4CCCN(C)CC4)c3)c2)c1 [Example 428, N-({5-Chloro-3′-[(4-methylhexahydro-1H-1,4-diazepin-1-yl)methyl]-3-biphenylyl}methyl)-N′-{[1,6-diethyl-4-(tetrahydro-2H-pyran-4-ylamino)-1H-pyrazolo[3,4-b]pyridin-5-yl]methyl}-1,3-benzenedicarboxamide] | 111 to 113
CCc1nc2c(cnn2CC)c(NC2CCOCC2)c1CNC(=O)c1cccc(C(=O)NCc2cc(Cl)cc(-c3cccc(CN4C[C@@H](C)N[C@@H](C)C4)c3)c2)c1 [Example 429, N-[(5-Chloro-3′-{[(3R,5S)-3,5-dimethyl-1-piperazinyl]methyl}-3-biphenylyl)methyl]-N′-{[1,6-diethyl-4-(tetrahydro-2H-pyran-4-ylamino)-1H-pyrazolo[3,4-b]pyridin-5-yl]methyl}-1,3-benzenedicarboxamide] | 112 to 114
CCc1nc2c(cnn2CC)c(NC2CCOCC2)c1CNC(=O)c1cccc(C(=O)NCc2cc(Cl)cc(-c3cccc(CN4CCCNCC4)c3)c2)c1 [Example 430, N-{[5-Chloro-3′-(hexahydro-1H-1,4-diazepin-1-ylmethyl)-3-biphenylyl]methyl}-N′-{[1,6-diethyl-4-(tetrahydro-2H-pyran-4-ylamino)-1H-pyrazolo[3,4-b]pyridin-5-yl]methyl}-1,3-benzenedicarboxamide] | 121 to 124
CCc1nc2c(cnn2CC)c(NC2CCOCC2)c1CNC(=O)c1cccc(C(=O)NCc2cc(Cl)cc(-c3cccc(CN4C[C@@H]5C[C@H]4CN5)c3)c2)c1 [Example 431, N-({5-Chloro-3′-[(1S,4S)-2,5-diazabicyclo [2.2.1]hept-2-ylmethyl]-3-biphenylyl}methyl)-N′-{[1,6-diethyl-4-(tetrahydro-2H-pyran-4-ylamino)-1H-pyrazolo[3,4-b]pyridin-5-yl]methyl}-1,3-benzenedicarboxamide] | 130 to 133

— patent US8067408B2, “Dual pharmacophores—PDE4-muscarinic antagonistics” (priority 2008, dated 2011)
